Reference: ChEMBL document CHEMBL1154407, “Tick acquisition of Ehrlichia canis from dogs treated with doxycycline hyclate” (Antimicrob Agents Chemother, 2007)
Calls of active or inactive are those of the source.

Key:
Assay type in all cases: functional, organism-based
Design in all cases: dose 10 mg/kg
[1] = system: Ehrlichia canis; test: Antimicrobial activity against Ehrlichia canis infected in Beagle dog AHK at 10 mg/kg, po once daily for 14 days measured 55 days post-tick attachment after drug administration by PCR
[2] = system: Ehrlichia canis; test: Antimicrobial activity against Ehrlichia canis infected in Beagle dog AHG at 10 mg/kg, po once daily for 14 days measured 76 days post-tick attachment after drug administration by PCR
[3] = system: Ehrlichia canis; test: Antimicrobial activity against Ehrlichia canis infected in Beagle dog AIP at 10 mg/kg, po once daily for 14 days measured 83 days post-tick attachment after drug administration by PCR
[4] = system: Ehrlichia canis; test: Antimicrobial activity against Ehrlichia canis infected in Beagle dog AUF at 10 mg/kg, po once daily for 14 days measured 104 days post-tick attachment after drug administration by PCR
[5] = system: Ehrlichia canis; test: Antimicrobial activity against Ehrlichia canis infected in Beagle dog AIP with brown dog tick assessed as infected ticks at 10 mg/kg, po once daily for 14 days measured 7 days post-tick attachment after drug administration by PCR

Measured: Activity

C[C@H]1c2cccc(O)c2C(=O)C2=C(O)[C@]3(O)C(=O)C(C(N)=O)=C(O)[C@@H](N(C)C)[C@@H]3[C@@H](O)[C@@H]21
inactive: all assays above
